Measurements as given in patent US10875832B2, “Substituted pyrimidines for treating bacterial infections” (FORGE THERAPEUTICS, INC., priority 2015, dated 2020).
In brackets after ≈: the same amount, converted by molar mass.

Assays:
Format in all cases: cell-based
[1] = test system: E. coli ATCC 25922; assay: MIC by broth microdilution, E. coli ATCC 25922, no FBS; details: Escherichia coli, ATCC25922, 35° C., 18-24 h
Experimental: (§1) Minimal inhibitory concentrations (MIC) were determined by the broth microdilution method in accordance with the Clinical and Laboratory Standards Institute (CLSI) guidelines. In brief, organism suspensions were adjusted to a 0.5 McFarland standard to yield a final inoculum between 3×10^5 and 7×10^5 colony-forming units (CFU)/mL. Drug dilutions and inocula were made in sterile, cation adjusted Mueller-Hinton Broth (Beckton Dickinson). An inoculum volume of 100 μL was added to wells containing 100 μL of broth with 2-fold serial dilutions of drug. All inoculated microdilution trays were incubated in ambient air at 35° C. for 18-24 h. […] Performance of the assay was monitored by the use of laboratory quality-control strains and levofloxacin, a compound with a defined MIC spectrum, in accordance with CLSI guidelines.

[2] = test system: E. coli BW25113; assay: MIC by broth microdilution, E. coli BW25113, no FBS; details: Escherichia coli, 35° C., 18-24 h
Experimental: as §1

[3] = test system: E. coli imp mutant; assay: MIC by broth microdilution, E. coli imp mutant; details: Escherichia coli, read-out: MIC E. coli imp mutant
Experimental: as §1

[4] = test system: E. coli delta to IC mutant; assay: MIC by broth microdilution, E. coli delta tolC mutant; details: Escherichia coli, read-out: MIC E. coli delta to IC mutant
Experimental: as §1

[5] = test system: S. aureus ATCC 29213; assay: MIC by broth microdilution, S. aureus ATCC 29213; details: Staphylococcus aureus, ATCC29213; 35° C., 18-24 h
Experimental: as §1

[6] = test system: P. aeruginosa 209; assay: MIC by broth microdilution, P. aeruginosa 209; details: Pseudomonas aeruginosa, 35° C., 18-24 h
Experimental: as §1

[7] = test system: P. aeruginosa 210 delta mexAB-OprM; assay: MIC by broth microdilution, P. aeruginosa 210 delta mexAB-OprM; details: Pseudomonas aeruginosa, read-out: MIC P. aeruginosa 210 delta mexAB-OprM
Experimental: as §1

SMILES | MIC [1] [µg/mL] | MIC [2] [µg/mL] | MIC [3] [µg/mL] | MIC [4] [µg/mL] | MIC [5] [µg/mL] | MIC [6] [µg/mL] | MIC [7] [µg/mL]
O=C(c1ccc(C#CC#Cc2ccc(NCc3nc[nH]c(=O)c3O)cc2)cc1)N1CCC(N2CCOCC2)CC1 [Compound 78] | > 32 | 1 to 8 (≈ 1.86 to 14.9 µM) | < 1 | < 1 | > 32 | > 32 | > 32
N#CC(Cc1ccc(C#Cc2ccc(CN3CCOCC3)cc2)cc1)n1cncc(O)c1=O (stereo not shown) [Compound 106] | > 32 |  | 8 to 32 (≈ 18.2 to 72.6 µM) | < 1 |  |  | 
O=c1[nH]cnc(CNc2ccc(-c3ccccc3)cc2)c1O [Compound 96] | > 32 | > 32 | > 32 | > 32 | > 32 | > 32 | > 32
Cc1nc(CO)c(O)c(=O)n1CC(O)c1ccc(-c2ccccc2)cc1 (stereo not shown) [Compound 92] | > 32 |  |  |  | > 32 | > 32 | 
O=c1c(O)cccn1C(CO)Cc1ccc(C#Cc2ccc(CN3CCOCC3)cc2)cc1 (stereo not shown) [Compound 114, 3-hydroxy-1-(1-hydroxy-3-(4-((4-(morpholinomethyl)phenyl)ethynyl)phenyl)propan-2-yl)pyridin-2(1H)-one] | 8 to 32 (≈ 18 to 72 µM) |  | 1 to 8 (≈ 2.25 to 18 µM) | 1 to 8 (≈ 2.25 to 18 µM) |  |  | 
O=c1[nH]cnc(CNc2ccc(C#Cc3ccc(-c4nnn[nH]4)cc3)cc2)c1O [Compound 103] | > 32 | > 32 | > 32 | 1 to 8 (≈ 2.59 to 20.8 µM) | > 32 | > 32 | > 32
CN(C)C1CCN(C(=O)c2ccc(C#CC#Cc3ccc(NCc4nc[nH]c(=O)c4O)cc3)cc2)C1 (stereo not shown) [Compound 100] | 1 to 8 (≈ 2.08 to 16.6 µM) | 1 to 8 (≈ 2.08 to 16.6 µM) | < 1 | < 1 | > 32 | > 32 | > 32
CCOC(=O)c1nc(C)n(CC(O)c2ccc(C#Cc3ccccc3)cc2)c(=O)c1O (stereo not shown) [Compound 89] | > 32 | > 32 | 8 to 32 (≈ 19.1 to 76.5 µM) | > 32 | 8 to 32 (≈ 19.1 to 76.5 µM) | > 32 | > 32
O=c1[nH]cnc(CS(=O)(=O)c2ccc(C#Cc3ccc(CN4CCOCC4)cc3)cc2)c1O [Compound 102] | 8 to 32 (≈ 17.2 to 68.7 µM) | 8 to 32 (≈ 17.2 to 68.7 µM) | 8 to 32 (≈ 17.2 to 68.7 µM) | 8 to 32 (≈ 17.2 to 68.7 µM) | > 32 | > 32 | 8 to 32 (≈ 17.2 to 68.7 µM)
O=c1c(O)cncn1CCc1ccc(C#Cc2ccc(CN3CCOCC3)cc2)cc1 [Compound 105, 5-hydroxy-3-(4-((4-(morpholinomethyl)phenyl)ethynyl)phenethyl)pyrimidin-4(3H)-one] | 8 to 32 (≈ 19.3 to 77 µM) |  | 1 to 8 (≈ 2.41 to 19.3 µM) | 1 to 8 (≈ 2.41 to 19.3 µM) |  |  | 
O=C(c1ccc(C#CC#Cc2ccc(NCc3nc[nH]c(=O)c3O)cc2)cc1)N1CC(O)C1 [Compound 86] | < 1 | < 1 | < 1 | < 1 | > 32 | > 32 | > 32
O=C(NCCN1CCCC1)c1ccc(C#CC#Cc2ccc(NCc3nc[nH]c(=O)c3O)cc2)cc1 [Compound 75] | 8 to 32 (≈ 16.6 to 66.5 µM) | 1 to 8 (≈ 2.08 to 16.6 µM) | 1 to 8 (≈ 2.08 to 16.6 µM) | < 1 | > 32 | > 32 | > 32
CC(=O)C(Cc1ccc(C#Cc2ccc(CN3CCOCC3)cc2)cc1)n1cncc(O)c1=O (stereo not shown) [Compound 107] | > 32 |  | > 32 | 8 to 32 (≈ 17.5 to 69.9 µM) |  |  | 
Cc1nc(C(=O)O)c(O)c(=O)n1CC(=O)c1ccc(-c2ccccc2)cc1 [Compound 82, 1-(2-([1,1′-biphenyl]-4-yl)-2-oxoethyl)-5-hydroxy-2-methyl-6-oxo-1,6-dihydro pyrimidine-4-carboxylic acid] | > 32 | > 32 | 1 to 8 (≈ 2.74 to 22 µM) | 8 to 32 (≈ 22 to 87.8 µM) | > 32 | > 32 | > 32
CNC(=O)c1nc(C)n(CC(O)c2ccc(-c3ccccc3)cc2)c(=O)c1O (stereo not shown) [Compound 91, 1-(2-([1,1′-biphenyl]-4-yl)-2-hydroxyethyl)-5-hydroxy-N,2-dimethyl-6-oxo-1,6-dihydropyrimidine-4-carboxamide] | > 32 | > 32 | > 32 | 8 to 32 (≈ 21.1 to 84.3 µM) | 8 to 32 (≈ 21.1 to 84.3 µM) | > 32 | > 32
O=C(NCCO)c1ccc(C#CC#Cc2ccc(NCc3nc[nH]c(=O)c3O)cc2)cc1 [Compound 88] | < 1 | < 1 | < 1 | < 1 | > 32 | > 32 | > 32
CNC(=O)c1ccc(C#CC#Cc2ccc(NCc3nc[nH]c(=O)c3O)cc2)cc1 [Compound 72, 4-((4-(((5-hydroxy-6-oxo-1,6-dihydropyrimidin-4-yl)methyl)amino)phenyl)buta-1,3-diyn-1-yl)-N-methylbenzamide] | < 1 | < 1 | < 1 | < 1 | > 32 | > 32 | > 32
Cc1nc(C(=O)O)c(O)c(=O)n1CC(O)c1ccc(C#Cc2ccc(CN3CCOCC3)cc2)cc1 (stereo not shown) [Compound 93] | > 32 | > 32 | > 32 | > 32 | > 32 | > 32 | > 32
Cc1nc(C(=O)O)c(O)c(=O)n1C/C(=N/O)c1ccc(-c2ccccc2)cc1 [Compound 95, (E)-1-(2-([1,1′-biphenyl]-4-yl)-2-(hydroxyimino)ethyl)-5-hydroxy-2-methyl-6-oxo-1,6-dihydropyrimidine-4-carboxylic acid] | > 32 | > 32 | 8 to 32 (≈ 21.1 to 84.3 µM) | > 32 | > 32 | > 32 | > 32
CCOC(=O)c1nc(C)n(CC(=O)c2ccc(-c3ccccc3)cc2)c(=O)c1O [Compound 84, ethyl 1-(2-([1,1′-biphenyl]-4-yl)-2-oxoethyl)-5-hydroxy-2-methyl-6-oxo-1,6-dihydropyrimidine-4-carboxylate] | > 32 | > 32 | > 32 | > 32 | > 32 | > 32 | > 32
O=c1[nH]cnc(CCc2ccc(C#Cc3ccc(CN4CCOCC4)cc3)cc2)c1O [Compound 104, 5-hydroxy-6-(4-((4-(morpholinomethyl)phenyl)ethynyl)phenethyl)pyrimidin-4(3H)-one] | 8 to 32 (≈ 19.3 to 77 µM) |  | 8 to 32 (≈ 19.3 to 77 µM) | 1 to 8 (≈ 2.41 to 19.3 µM) |  |  | 
CC(C)(O)C(Cc1ccc(C#Cc2ccc(CN3CCOCC3)cc2)cc1)c1nc[nH]c(=O)c1O (stereo not shown) [Compound 112] | 8 to 32 (≈ 16.9 to 67.6 µM) |  | 1 to 8 (≈ 2.11 to 16.9 µM) | < 1 |  |  | 
O=c1[nH]cnc(CN(CCO)c2ccc(C#Cc3ccc(CN4CCOCC4)cc3)cc2)c1O [Compound 113] | > 32 |  | > 32 | > 32 |  |  | 
CC(O)C(Cc1ccc(C#Cc2ccc(CN3CCOCC3)cc2)cc1)n1cncc(O)c1=O (stereo not shown) [Compound 108] | > 32 |  | 8 to 32 (≈ 17.4 to 69.6 µM) | 8 to 32 (≈ 17.4 to 69.6 µM) |  |  | 
O=c1c(O)cncn1CCc1ccc(C#Cc2ccc(CN3CCOCC3)cc2)cc1 [Compound 73, 5-hydroxy-3-(4-((4-(morpholinomethyl)phenyl)ethynyl)phenethyl)-pyrimidin-4(3H)-one] |  | 1 to 8 (≈ 2.41 to 19.3 µM) |  |  | > 32 | > 32 | > 32
